Literature values in patent publication US9358213B2, “Pharmaceutical compositions of duloxetine” (priority 2007, dated 2016).

CNCC[C@H](Oc1cccc2ccccc12)c1cccs1 [Duloxetine]
stability at alkaline pH (alkaline pH): stable | dosage hydrolyzed to 1-naphthol (pH of 1.0, within one hour): 50% | dosage degrades to 1-naphthol (pH of 2.0, in one hour): 10% | time for 10% degradation (pH of 4.0): up to 63 hours
